Data taken from patent US9480679B2, “Methods for treating malaria, tuberculosis and MAC diseases” (priority 2009, dated 2016).
Values after ≈ are worked out from the molar mass of the structure shown. Where two headings read alike, the source gives them in different places.

Tests used:
P. berghei = assay: Murine P. berghei model, oral 1x or 4x 100 mg/kg; assay type: in vivo; details: for Parasitized RBC in one drop of blood (made by microscope): individual animals
Experimental: EXAMPLE. CEM-101 activity in infected mice.
EXAMPLE. CEM-101 was tested in the murine P. berghei model as described by Vennerstrom et al. Nature 430(7002):900-904 (2004), the disclosure of which is incorporated herein by reference.

M. avium LPR ATCC 49601 = assay: Murine model of M. avium infection, CFU in spleens and lungs; assay type: in vivo; details: mice; for reduction in growth of MAC LPR in the spleens and lungs compared to the late controls: P<0.05
M. avium complex = assay: Broth dilution MIC versus M. avium complex isolates; assay type: cell-based, Mycobacterium avium; details: Mycobacterium avium, read-out: MIC
[1] = test system: replicating M. tuberculosis; assay: Microplate Alamar Blue Assay (MABA), replicating culture; assay type: cell-based; details: two experiments

SMILES: CC[C@H]1OC(=O)[C@@](C)(F)C(=O)[C@H](C)[C@@H](O[C@@H]2O[C@H](C)C[C@H](N(C)C)[C@H]2O)[C@](C)(OC)C[C@@H](C)C(=O)[C@H](C)[C@H]2N(CCCCn3cc(-c4cccc(N)c4)nn3)C(=O)O[C@]12C [CEM-101, solithromycin]
- Survival (P. berghei; mice, 1 × 100 mg/kg oral, DMSO): 15.7 days
- Activity (%) (P. berghei; mice, 1 × 100 mg/kg oral, HPMC): 81.45%
- Survival (P. berghei; mice, 1 × 100 mg/kg oral, HPMC): 12.7 days
- Activity (%) (P. berghei; mice, 4 × 100 mg/kg oral, DMSO): 99.79%
- Cure (%) (P. berghei; mice, 4 × 100 mg/kg oral, DMSO): 100%
- Survival (P. berghei; mice, 4 × 100 mg/kg oral, DMSO, survivors sacrificed on Day 31): 30.0 days
- Activity (%) (P. berghei; mice, 4 × 100 mg/kg oral, HPMC): 99.79%
- Cure (%) (P. berghei; mice, 4 × 100 mg/kg oral, HPMC): 100%
- Survival (P. berghei; mice, 4 × 100 mg/kg oral, HPMC, survivors sacrificed on Day 31): 30.0 days
- blood from treated animals parasite free or not (P. berghei; mice, 4× 100 mg/kg p.o.): parasite free
- Visual Observation (parasites in blood) (P. berghei; mice, 4× 100 mg/kg p.o., DMSO): neg
- Parasitized RBC in one drop of blood (made by microscope) (P. berghei; mice, 4× 100 mg/kg p.o., DMSO): 0
- Visual Observation (parasites in blood) (P. berghei; mice, 4× 100 mg/kg p.o., HPMC): neg
- Parasitized RBC in one drop of blood (made by microscope) (P. berghei; mice, 4× 100 mg/kg p.o., HPMC): 0
- outcome of treatment (P. berghei; mice, P. berghei strain ANKA, 4×100 mg/kg, cure = survival on Day 30 with no detectable parasites): cure
- activity compared with Artesunate in the mouse model (P. berghei; murine P. berghei model (Vennerstrom et al.)): equivalent activity to Artesunate
- reduction in growth of MAC LPR in the spleens and lungs compared to the late controls, significant or not (M. avium LPR ATCC 49601; 25 mg/kg orally 5 days/week for 4 weeks, P>0.05): not
- reduction in growth of MAC LPR in the spleens and lungs compared to the late controls (M. avium LPR ATCC 49601; 50 mg/kg orally 5 days/week for 4 weeks): significant
- reduction in growth of MAC LPR in the spleens and lungs compared to the late controls (M. avium LPR ATCC 49601; 100 mg/kg orally 5 days/week for 4 weeks): significant
- reduction in growth of MAC LPR in the spleens and lungs compared to the late controls (M. avium LPR ATCC 49601; 200 mg/kg orally 5 days/week for 4 weeks): significant
- reduction in CFU of MAC LPR in spleens and lungs compared to the CLA 200 mg/kg group (M. avium LPR ATCC 49601; 200 mg/kg, difference not statistically significant (P>0.05)): greater
- MIC (M. avium complex; isolate MAC 101, clarithromycin susceptible): 0.25 µg/mL (≈ 0.296 µM)
- MIC (M. avium complex; isolate MAC 103, clarithromycin resistant): 8 µg/mL (≈ 9.47 µM)
- MIC (M. avium complex; isolate MAC 108, clarithromycin resistant): 8 µg/mL (≈ 9.47 µM)
- MIC (M. avium complex; isolate MAC 110, clarithromycin resistant): 8 µg/mL (≈ 9.47 µM)
- MIC (M. avium complex; isolate MAC 216, clarithromycin resistant): 8 µg/mL (≈ 9.47 µM)
- MIC (M. avium complex; isolate MAC 224, clarithromycin resistant): 8 µg/mL (≈ 9.47 µM)
- MIC (M. avium complex; isolate MAC 309, clarithromycin resistant): 8 µg/mL (≈ 9.47 µM)
- MIC (M. avium complex; isolate MAC 320, clarithromycin resistant): 8 µg/mL (≈ 9.47 µM)
- MIC (M. avium complex; isolate MAC 621, clarithromycin resistant): 16 µg/mL (≈ 18.9 µM)
- MIC (M. avium complex; isolate MAC 623, clarithromycin resistant): 16 µg/mL (≈ 18.9 µM)
- MIC (M. avium complex; isolate MAC 625, clarithromycin resistant): 8 µg/mL (≈ 9.47 µM)
- MIC (M. avium complex; isolate MAC 643, clarithromycin resistant): 8 µg/mL (≈ 9.47 µM)
- MIC (M. avium complex; isolate MAC 1408, clarithromycin susceptible): 0.25 µg/mL (≈ 0.296 µM)
- MIC (M. avium complex; isolate MAC 3404.4, clarithromycin susceptible): 0.125 µg/mL (≈ 0.148 µM)
- MIC (M. avium complex; isolate MAC 9141, clarithromycin susceptible): 1 µg/mL (≈ 1.18 µM)
- MIC (M. avium complex; isolate MAC FAR, clarithromycin susceptible): 0.125 µg/mL (≈ 0.148 µM)
- MIC (M. avium complex; isolate MAC GRL, clarithromycin susceptible): 8 µg/mL (≈ 9.47 µM)
- MIC (M. avium complex; isolate MAC KAL, clarithromycin susceptible): 16 µg/mL (≈ 18.9 µM)
- MIC (M. avium complex; isolate MAC KZL, clarithromycin susceptible): 8 µg/mL (≈ 9.47 µM)
- MIC (M. avium complex; isolate MAC LPR (control strain)): 8 µg/mL (≈ 9.47 µM)
- MIC (M. avium complex; isolate MAC Pry, clarithromycin resistant): 8 µg/mL (≈ 9.47 µM)
- MIC (M. avium complex; isolate MAC SMT, clarithromycin susceptible): 0.125 µg/mL (≈ 0.148 µM)
- MIC (M. avium complex; isolate MAC TEL, clarithromycin susceptible): 8 µg/mL (≈ 9.47 µM)
- MIC (M. avium complex; isolate MAC TRY, clarithromycin susceptible): 8 µg/mL (≈ 9.47 µM)
- MIC ([1]; Mycobacterium tuberculosis): 9.23 µM (≈ 7.8 µg/mL)
- MIC [1]: 9.17 µM (≈ 7.75 µg/mL)
